In PMC5374206, “Anti-bacterial and Anti-biofilm Evaluation of Thiazolopyrimidinone Derivatives Targeting the Histidine Kinase YycG Protein of Staphylococcus epidermidis” (Frontiers in Microbiology, 2017):
Converted amounts (≈) assume the structure as drawn.

What was measured:
[1] = system: S. epidermidis ATCC 35984; test: MIC and MBC tube-dilution assay; format: cell-based; conditions: Staphylococcus epidermidis; for MBC: ATCC35984, 99.9% reduction of inoculum; for MIC: ATCC35984, MHB, 16–20 h
Experimental: (§1) The MIC assays of the derivatives of compound 5 against S. epidermidis, S. aureus, MRSA and E. coli were performed by using the methods described previously by Wiegand et al. ([2008]). In brief, two-fold serial dilutions of the derivatives were prepared in tubes containing 4 mL MHB medium, yielding final concentrations from 200 to 0.78 μM. Bacterial cultures were grown overnight and adjusted so that the bacterial suspension turbidity was equivalent to a 0.5 McFarland standard (~1 × 10^8 CFU/mL) and further diluted to 1:200 into MHB medium. The contents in the tubes were mixed thoroughly and incubated at 37°C with shaking at 220 rpm for 16–20 h. The MIC endpoint was defined as the lowest concentration at which there was no visible growth in the tubes. The MBC values were assessed by plating 100 μL samples from each negative (no visible bacterial growth) culture tube from the MIC assays onto blank MHB agar plates. After incubation at 37°C for 24 h, the bacterial colonies on the plates were counted. The MBC was the concentration at which a 99.9% reduction of the original inoculum was observed (Pridmore et al., [2011]). In this assay, all the experiments were performed three times.

S. aureus ATCC 49230 = test: MIC tube-dilution assay; format: cell-based; conditions: Staphylococcus aureus, ATCC49230
Experimental: as §1

[2] = system: S. epidermidis ATCC 12228; test: MIC tube-dilution assay; format: cell-based; conditions: Staphylococcus epidermidis, ATCC12228
Experimental: as §1

E. coli ATCC 25922 = test: MIC tube-dilution assay; format: cell-based, Escherichia coli; conditions: E. coli ATCC29522 (head), highest concentration used 200 μM
Experimental: as §1

Cytotoxicity MTT assay = format: cell-based; conditions: African green monkey, Vero cells, highest concentration tested 200 μM
Experimental: A Cell Proliferation Kit I (MTT; Roche, Indianapolis, USA) was used to detect the cytotoxicity of the derivatives against Vero cells. Vero cells were added to 96-well microtiter plates at a concentration of 5 × 10^4 cells/well in 100 μL of culture medium. After 24 h, culture medium was replaced by 100 μL serial dilutions of the derivatives (0.78–100 μM) and the cells were incubated for 4 h in an atmosphere of 5% CO2, then 10 μL of the MTT stock solution was added to each well and the plate returned to the 37°C incubator for 4 h. Subsequent to the incubation, the purple formazan salts were dissolved in DMSO, and the absorbance of each well was measured at wavelengths of 595 nm (test) and 655 nm (reference). Cells treated with the solvent (0.1% DMSO) were used as a blank control. The concentration of the derivatives that produced a 50% cytotoxicity effect on Vero cells (CC50) was calculated using Origin v8.0 software (Origin Lab, Northampton, USA).

[3] = Erythrocyte hemolysis assay; format: cell-based; conditions: human, erythrocytes (5% suspension), 37°C; for hemolysis at 1 h, 200 µM: at 200 μM; for hemolysis at 1 h: at MIC (against S epidermidis ATCC 35984)
Experimental: Hemolytic activities of the derivatives were measured on healthy human erythrocytes. A pure suspension of erythrocytes was obtained by washing a blood sample with sterile 0.9% NaCl saline solution. Erythrocytes were resuspended in normal saline to give a 5% solution, then treated with MIC, 4 × MIC or 200 μM of the derivatives for 1 h at 37°C in 96-well microtiter plates. After the incubation and centrifugation at 1,000 g for 10 min, supernatants were transferred to another sterile plate and the absorbance at 570 nm was measured on a spectrophotometric microplate reader. A positive control (100% hemolysis) and a negative control (0% hemolysis) were achieved by incubating with 1% Triton-X 100 and 0.1% DMSO, respectively. Each assay was performed in triplicate and repeated three times.

YycG′ protein = target: T1, YycG′ protein (Staphylococcus epidermidis, UniProt Q5HK19); test: Inhibition of YycG′ autophosphorylation (Kinase-Glo Luminescent Kinase Assay); format: biochemical; conditions: 4 μM ATP; for inhibition of the enzymatic activity of YycG′ protein: 100 μM derivative, 2 μg YycG′ protein; for IC50: Kinase-Glo, 2 μg YycG′, read-out: IC50 (inhibition of autophosphorylation of recombinant YycG′)
T1 construct: made in house; host or cells: E. coli BL21(DE3)
T1 sequence (Q5HK19 384-602 limits assumed): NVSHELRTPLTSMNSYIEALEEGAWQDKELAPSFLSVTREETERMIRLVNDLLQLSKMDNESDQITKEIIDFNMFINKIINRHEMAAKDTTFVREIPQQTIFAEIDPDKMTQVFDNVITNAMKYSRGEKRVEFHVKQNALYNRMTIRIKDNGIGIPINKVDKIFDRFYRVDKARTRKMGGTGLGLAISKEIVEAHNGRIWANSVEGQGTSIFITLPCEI
Experimental: The construction of the recombinant plasmid pET28a-YycG′ (containing the HATPase_c and HisKA domains of YycG) has been previously described (Liu et al., [2014]). After being used to transform E. coli strain BL21(DE3), this recombinant plasmid was induced to express YycG′ protein by 0.4 mM isopropyl-1-thio-β-D-galactopyranoside at 21°C for 12 h. Then, the bacterial cells were disrupted by sonication and centrifuged, the supernatant was purified by Ni–NTA agarose (Qiagen, Los Angeles, CA, USA). The inhibitory activities of the compound 5 derivatives on the ATPase activity of the YycG′ protein were measured using the Kinase-Glo™ Luminescent Kinase Assay (Promega, Madison, WI, USA). Briefly, 2 μg purified YycG′ protein was pre-incubated with a series of dilutions of the derivatives in reaction buffer [40 mM Tris (pH 7.5), 20 mM MgCl2 and 0.1 mg/ml BSA] at room temperature for 30 min, 4 μM ATP was added and incubated for 30 min at room temperature, then Kinase-Glo™ Reagent was added to detect the remaining amount of ATP, as reflected by luminescence intensity (RLU). In parallel, YycG′ protein with no addition of the derivatives was used as the control and ATP only was used as a blank. The rate of inhibition of protein phosphorylation (Rp) by the derivatives was calculated by the following equation: Rp = RLU(YycG^′+derivative+ATP+Kinase−Glo™)−RLU(YycG^′+ATP+Kinase−Glo™)/RLU(ATP+Kinase−Glo™)−RLU(YycG^′+ATP+Kinase−Glo™) × 100 IC50 (the concentration resulting in 50% inhibition of YycG′ protein autophosphorylation) was obtained by using Origin v7.0 software (OriginLab, Northampton, USA).

[4] = system: S. epidermidis ATCC 35984 mature biofilms; test: Cell viability in mature (24 h) biofilms by CLSM with Live/Dead staining; format: cell-based, Staphylococcus epidermidis; conditions: 4 × MIC, 16 h, 24 h mature biofilm; for PI fluorescence quantity (dead cells) / SYTO9 fluorescence quantity (viable cells): Image J
Experimental: The effect of the derivatives on cell viability in mature biofilms (24 h old) was determined using the Live/Dead Bacterial Viability method (Live/Dead BacLight, Molecular Probes, USA). […] The mature biofilms were stained with SYTO 9 and propidium iodide at room temperature for 15 min, following gentle washing of the dishes with normal saline, and were observed under a Leica TCS SP5 CLSM with a 63 × 1.4-NA oil-immersion objective. Further, image analysis was performed using IMARIS 7.0.0 software (Bitplane). The fluorescence quantities of biofilm were determined using Image J software. This assay was performed in triplicate and similar results were obtained.

[5] = system: S. epidermidis ATCC 35984; test: Time-kill assay against fast-growing S. epidermidis; format: cell-based, Staphylococcus epidermidis; conditions: 4 × MIC
Experimental: Suspensions of S. epidermidis (1 × 10^7 CFU/mL) were prepared and separately treated with the derivatives of compound 5 or vancomycin at concentrations of 4 × MIC in fresh MHB. Time-kill experiments were performed at 37°C with shaking at 220 rpm under aerobic conditions. Aliquots (1 mL) were removed from the culture medium at different time points (0, 1, 3, 5, 8, and 24 h), serially diluted and 100 μL of each of the dilutions plated out onto tryptic soy agar. After incubating at 37°C for 24 h, emergent bacterial colonies were counted, and the activity of the derivatives against fast-growing S. epidermidis cells was determined by plotting log10 colony counts (CFU/mL) against time. Bactericidal activity was defined as a 3-log10 decrease in CFU/mL. This assay was performed in triplicate and similar results were obtained.

[6] = system: S. epidermidis ATCC 35984 mature biofilms; parameters: method as in Liu et al., 2014; conditions: vancomycin 128 μg/mL; ref Liu et al., 2014; cited from earlier work
[7] = Escherichia coli, ATCC 25922 / ATCC 29522

| SMILES | MBC [1] | MIC [1] | MIC (S. aureus ATCC 49230) | MIC [2] | MIC (E. coli ATCC 25922; [7]) | CC50 at 4 h (Cytotoxicity MTT assay) | hemolysis at 1 h, 200 µM [3] | hemolysis at 1 h [3] | inhibition of the enzymatic activity of YycG′ protein (YycG′ protein) | IC50 (YycG′ protein) | MIC (E. coli ATCC 25922) | PI/Total (reduction of the proportion of viable cells in mature biofilms) [4] | PI fluorescence quantity (dead cells) [4] | SYTO9 fluorescence quantity (viable cells) [4] | time required to achieve a bactericidal effect ([5]; bactericidal = 3-log10 decrease in CFU/mL) | reduction in CFU/mL ([5]; within/after 1 h, inoculum ~1 × 10^7 CFU/mL, MHB) | reduction of living cells in mature biofilm [6] |
| --- | --- | --- | --- | --- | --- | --- | --- | --- | --- | --- | --- | --- | --- | --- | --- | --- | --- |
| CCOC(=O)C1=C(c2ccccc2)N=c2s/c(=C\c3ccc(-c4cccc(C(=O)O)c4)o3)c(=O)n2C1c1ccc2c(c1)OCO2 (centres unmarked) [Compound 5, {5-benzo [1,3]dioxol-5-yl-2-[5-(3-carboxy-phenyl)-furan-2-ylmethylene]-3-oxo-7-phenyl-2,3-dihydro-5H-thiazolo [3,2-a]pyrimidine-6-carboxylic} acid ethyl ester] | 25 µM (≈ 15.5 µg/mL) | 6.25 µM (≈ 3.88 µg/mL) | 6.25 µM (≈ 3.88 µg/mL) | 6.25 µM (≈ 3.88 µg/mL) | > 200 µM | > 200 µM | 0.51 ± 0.06% | 0.31 ± 0.16% |  |  |  |  |  |  |  |  |  |
| CCOC(=O)C1=C(c2ccccc2)N=c2sc(=Cc3ccc(-c4cccc(C(=O)O)c4)o3)c(=O)n2C1c1ccc(Cl)cc1 (centres unmarked) [H5-23, 2-{5-(3-carboxy-phenyl)-furan-2-ylmethylene]-5-(4-chloro-phenyl)-3-oxo-7-phenyl-2,3-di-hydro-5H-thiazolo[3,2-a]pyrimidine-6-carboxylic acid ethyl ester] | 25 µM (≈ 15.3 µg/mL) | 1.56 µM (≈ 0.953 µg/mL) | 1.56 µM (≈ 0.953 µg/mL) | 1.56 µM (≈ 0.953 µg/mL) | > 200 µM | > 200 µM | 0.27 ± 0.01% | 0.27 ± 0.35% | 64.78% | 77.2 µM | >200 µM | 85.7% | 61.928 ± 5.05 | 10.333 ± 4.39 |  |  |  |
| COc1ccc(C2C=C(c3ccccc3)N=c3sc(=Cc4ccc(-c5cccc(C(=O)O)c5)o4)c(=O)n32)cc1 (centres unmarked) [H5-24, 3-{5-[5-(4-methoxy-phenyl)-3-oxo-7-phenyl-5H-thiazolo[3,2-a]pyrimidin-2-ylidenemethyl]-furan-2-yl}-benzoic acid] | 50 µM (≈ 26.7 µg/mL) | 1.56 µM (≈ 0.834 µg/mL) | 1.56 µM (≈ 0.834 µg/mL) | 1.56 µM (≈ 0.834 µg/mL) | > 200 µM | > 200 µM | 0.32 ± 0.05% | 0.17 ± 0.11% | 49.92% | 82.2 µM | >200 µM | 77.5% | 43.242 ± 5.65 | 12.554 ± 4.23 |  |  |  |
| O=C(O)c1cccc(-c2ccc(C=c3sc4n(c3=O)C(c3ccc(Cl)cc3)C=C(c3ccccc3)N=4)o2)c1 (centres unmarked) [H5-25, 3-{5-[5-(4-chloro-phenyl)-3-oxo-7-phenyl-5H-thiazolo [3,2-a]pyrimidin-2-ylidenemethyl]-furan-2-yl}-benzoic acid] | 50 µM (≈ 27 µg/mL) | 1.56 µM (≈ 0.841 µg/mL) | 1.56 µM (≈ 0.841 µg/mL) | 1.56 µM (≈ 0.841 µg/mL) | > 200 µM | > 200 µM | 0.39 ± 0.09% | 0.27 ± 0.01% | 51.42% | 80.2 µM | >200 µM | 43.80% | 47.687 ± 4.77 | 61.188 ± 5.49 |  |  |  |
| CN[C@H](CC(C)C)C(=O)N[C@H]1C(=O)N[C@@H](CC(N)=O)C(=O)N[C@H]2C(=O)N[C@H]3C(=O)N[C@H](C(=O)N[C@H](C(=O)O)c4cc(O)cc(O)c4-c4cc3ccc4O)[C@H](O)c3ccc(c(Cl)c3)Oc3cc2cc(c3O[C@@H]2O[C@H](CO)[C@@H](O)[C@H](O)[C@H]2O[C@H]2C[C@](C)(N)[C@H](O)[C@H](C)O2)Oc2ccc(cc2Cl)[C@H]1O [vancomycin, reference compound] |  |  |  |  |  |  |  |  |  |  |  |  |  |  | > 5 h | ~ 1 log | 11.4% |
